# Reference: patent US10913757B2, “Hydroxycinnamic derivatives, methods and uses thereof” (UNIVERSIDADE DO PORTO, priority 2016, dated 2021)
# Test system: rat liver mitochondria (RLM) membranes
# Test: RLM lipid peroxidation, TBARS assay (FeSO4/H2O2/ascorbate)
# Type: biochemical
# Settings: 5 μM pre-incubation, FIG. 4A
# Experimental: In an embodiment, and as an example, AntiOxCINs antioxidant performance, on the protection of lipid peroxidation of RLM membranes was determined. Two different oxidative stressor agents, FeSO4/H2O2/ascorbate and ADP/FeSO4, and two end-points, TBARS production and oxygen-consumption, respectively, have been used. MitoQ was used as reference (FIGS. 4 and 5).
# In an embodiment, the evaluation of AntiOxCINs functional mitochondrial toxicity profile was performed in rat liver mitochondria (RLM). RLM were prepared by tissue homogenization followed by differential centrifugations in ice-cold buffer containing 250 mM sucrose, 10 mM HEPES (pH 7.4), 1 mM EGTA, and 0.1% fat-free bovine serum albumin. […] The protein concentration was determined by the biuret assay using BSA as a standard.
# In an embodiment, the effect of AntiOxCINs on RLM lipid peroxidation was measured by thiobarbituric acid reactive species (TBARS) assay as follows: RLM (2 mg protein/ml) were incubated in 0.8 mL medium containing 100 mM KCl, 10 mM Tris-HCl and pH 7.6, at 37° C., supplemented with 5 mM glutamate/2.5 mM malate as substrate. […] The fluorescence of aliquots (250 μL) of the organic layer was analyzed in a plate reader (λEx=515 nm; λEm=553 nm) for TBARS. […] Data are means±SEM of three independent experiments and are expressed as % of control (control=100%).
compound,measurement,value
"CS(=O)(=O)[O-].O=C(/C=C/c1ccc(O)c(O)c1)NCCCCCC[P+](c1ccccc1)(c1ccccc1)c1ccccc1 [AntiOxCIN2, (E)-(6-(3-(3,4-dihydroxyphenyl)prop-2-enamido)hexyl)triphenylphosphonium methanesulfonate]",prevention of mitochondria lipid peroxidation (TBARS levels),most effective
